Measured values reported in EPA's aquatic toxicity sets.

The compounds below were run on Pimephales promelas (assay: 96 h LC50 (-log10 mol/L); higher = more toxic).

Compound	96 h LC50 (-log10 mol/L)
c1ccc(SSc2ccccc2)cc1	6.3
ClC1=C(Cl)[C@]2(Cl)[C@H]3[C@H]([C@@H]4C=C[C@H]3C4)[C@@]1(Cl)C2(Cl)Cl	7.09
CC(C)(c1cc(Br)c(O)c(Br)c1)c1cc(Br)c(O)c(Br)c1	5.83
CC(C)(C)SC(C)(C)C	3.7
O=C1c2ccccc2C(=O)N1SC(Cl)(Cl)Cl	6.21
COc1cc(Cl)c(Cl)cc1O	4.63
COP(O)(=S)OC	3.52
Oc1ccc(Oc2ccc(O)cc2)cc1	4.54
CC(Cl)(Cl)C(=O)O	2.69
CCNc1nc(NC(C)C)nc(SC)n1	4.38
BrCCCBr	5.05
c1ccc2c(c1)CCC2	3.93
CCOP(=S)(OCC)SCSP(=S)(OCC)OCC	5.73
ClCCOCOCCCl	2.97
Cc1cccc([N+](=O)[O-])c1N	3.8
CN(C)N=O	1.9
C=CCNc1ccccc1	3.57
OCCN(CCO)c1ccccc1	2.39
COc1ccc(C=O)c(OC)c1	3.92
C#CCCO	3.29
CC(=O)Cl	3.27
O=C(O)CCCOc1ccc(Cl)cc1Cl	4.14
Cc1c(Cl)cccc1NC=O	3.56
CCC1(CCC(C)C)C(=O)NC(=O)NC1=O	3.42
c1ccc2c(c1)CCO2	3.17
OCCN1CCNCC1	1.31

What follows are compounds tested on Tetrahymena pyriformis (assay: 48 h IGC50 (-log10 mol/L); higher = more toxic).

Compound	48 h IGC50 (-log10 mol/L)
COC(=O)C(C)(C)C	1.72
O=Cc1ccc(O)c2ccccc12	4.05
N#Cc1ccc(Cl)cc1	3
OCC#CCO	1.12
CC(C)(C)c1cc(O)cc(C(C)(C)C)c1	4.64
CCCNC(C)=O	1.5
O=C1C=CCC1	3.64
CCOC(=O)C(NC(C)=O)C(=O)OCC	1.8
CCC#CC(=O)OCC	3.82
CCCCOC(N)=O	2.03
CCCOc1ccc(O)cc1	3.52
C=CC(=O)N(C)C	1.76
N#Cc1ccc(-c2ccccc2)cc1	4.24
Oc1cccc(O)c1O	3.85
COc1ccc(C(=O)c2ccccc2)c(O)c1	4.42
NC(=O)CBr	4.52
CCCSc1ccccc1	3.86
Cc1cc(C)cc(N)c1	2.64
CCc1ccc(C=O)cc1	3.29
CC(O)Cc1ccccc1 (stereo unspecified)	2.38
Cc1ccc(O)c([N+](=O)[O-])n1	3.39
O=c1ccc(Cl)c[nH]1	2.25
OCCc1ccc(O)cc1	2.17
CCCCCCC#CCO	3.65

Compound	48 h IGC50 (-log10 mol/L)
Cc1cc(N)c([N+](=O)[O-])cc1C	3.45
CCOc1cccc2ccccc12	4.25
N#CCC(=O)OC1CCCCC1	2.91
c1cnccn1	1.18
CCC(C)C(N)CO (stereo unspecified)	2.34
O=[N+]([O-])c1ccc(F)c(F)c1F	4.89
Nc1cccc([N+](=O)[O-])c1	3.03
Nc1c([N+](=O)[O-])cc(Cl)cc1[N+](=O)[O-]	4.15
C=CCOC(C)=O	3.48
CCCC(CCC)C(=O)O	3.03
OCc1ccccc1I	3.33
CCC/C=C/C(C)=O	3.7
CCCCC(=O)OC	2.15
CC(C)(C)C#N	1.68
CCCCCCCCCC(C)O (stereo unspecified)	4.58
O=[N+]([O-])c1cccc(CO)c1	2.78
O=C(NO)c1ccccc1O	3.38
O=C1C=CC(=O)c2c(O)ccc(O)c21	5.83
CCCCC1CCC(=O)O1 (stereo unspecified)	2.62
OCC(Br)(Br)Br	3.11
CCCCCC#N	2.62
Cc1cc(Cl)c([N+](=O)[O-])cc1[N+](=O)[O-]	5.33
CCC#CCCO	1.98
O=C(O)c1cc(Cl)ccc1Cl	2.54

Compound	48 h IGC50 (-log10 mol/L)
CCCCCN=C=S	4.71
CCCCCc1ccc(O)cc1	4.58
CC(C)c1ccccc1N	3.12
CC/C=C\CO	1.9
c1ccnnc1	1.59
Oc1c(-c2ccccc2)cccc1-c1ccccc1	5.11
Cc1c(N)ccc(O)c1C	4.44
CCCOC=O	1.98
CC(Cl)C(N)=O (stereo unspecified)	1.56
CCCCCN	2.52
CC(=O)c1ccco1	1.96
CCCCC(=O)OCCC	3.01
CC1CCOC1=O (stereo unspecified)	1.81
O=Cc1cc(Cl)cc(Cl)c1O	4.55
Oc1cc(Cl)cc(Cl)c1	4.56
CCCCCCCCCCCN	5.33
C=CC(=O)OCCCC	3.52
NC(=S)NCc1ccccc1	3.66
CCOC(=O)C(C)C	1.73
CCc1ccccc1O	3.16
NC(=O)c1cccs1	2.03
CS(C)(=O)=O	0.8
OCc1ccc(F)cc1	2.38
OCC#Cc1ccccc1	3.07

Compound	48 h IGC50 (-log10 mol/L)
CCOC(=O)c1ccc(C(C)(C)C)cc1	4.42
CC(C)(C)OC=O	1.63
CCCCCCOc1ccc(O)cc1	4.64
CCCCCCCCC(O)CCC (stereo unspecified)	4.65
N#CC(C#N)=Cc1ccco1	3.94
CCC(C)(C)N	2.3
CC(C)C=CC=O	3.82
Cc1cc(O)c([N+](=O)[O-])cc1Cl	4.63
N#CCc1ccccc1	2.64
CCSc1ccccc1	3.3
CC(C)CCC#N	2.21
CC(C)=CCO	1.76
O=C(O)c1c(Cl)cccc1Cl	2.33
N#Cc1ccc(Cl)s1	2.92
CC(=O)C(C)=O	2.77
C=C(C=O)CCCC	4.07
CCCC#CCO	2.62
CC(C#N)c1ccccc1 (stereo unspecified)	3.01
CCCCCCCS	4.02
CC(C)CCBr	3.25
CCCC(C)C=O (stereo unspecified)	2.53
CN(C)c1ccc(C=O)cc1	3.23
Oc1ccc(C(F)(F)F)cc1	3.62
